18 compounds from ChEMBL document CHEMBL5291721, “A preclinical secondary pharmacology resource illuminates target-adverse drug reaction associations of marketed drugs” (Nat Commun, 2023) can be followed below.

Experiment [1] has as its target T1, Muscarinic acetylcholine receptor M2 (Homo sapiens, UniProt P08172).
T1 sequence (P08172 whole entry): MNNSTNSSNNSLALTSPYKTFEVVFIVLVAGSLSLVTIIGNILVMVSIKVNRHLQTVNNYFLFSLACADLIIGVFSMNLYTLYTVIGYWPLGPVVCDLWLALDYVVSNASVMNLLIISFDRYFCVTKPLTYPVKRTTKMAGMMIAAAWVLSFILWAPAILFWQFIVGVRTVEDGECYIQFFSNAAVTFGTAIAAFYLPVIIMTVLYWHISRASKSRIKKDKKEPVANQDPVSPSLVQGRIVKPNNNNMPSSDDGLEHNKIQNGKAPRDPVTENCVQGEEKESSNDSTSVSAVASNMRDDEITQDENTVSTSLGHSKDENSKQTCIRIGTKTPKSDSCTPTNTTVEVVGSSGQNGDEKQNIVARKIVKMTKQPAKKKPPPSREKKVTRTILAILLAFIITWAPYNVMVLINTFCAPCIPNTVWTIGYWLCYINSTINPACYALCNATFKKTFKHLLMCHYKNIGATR
The format is functional, cell-based.

Experiment [2] has as its target Gamma-aminobutyric acid receptor subunit alpha-1 (Rattus norvegicus, UniProt P62813).
For experiment [3], the target named is 5-hydroxytryptamine receptor 2B (Homo sapiens, UniProt P41595). The format is functional, cell-based.
Chain of 5-hydroxytryptamine receptor 2B (P41595 whole entry): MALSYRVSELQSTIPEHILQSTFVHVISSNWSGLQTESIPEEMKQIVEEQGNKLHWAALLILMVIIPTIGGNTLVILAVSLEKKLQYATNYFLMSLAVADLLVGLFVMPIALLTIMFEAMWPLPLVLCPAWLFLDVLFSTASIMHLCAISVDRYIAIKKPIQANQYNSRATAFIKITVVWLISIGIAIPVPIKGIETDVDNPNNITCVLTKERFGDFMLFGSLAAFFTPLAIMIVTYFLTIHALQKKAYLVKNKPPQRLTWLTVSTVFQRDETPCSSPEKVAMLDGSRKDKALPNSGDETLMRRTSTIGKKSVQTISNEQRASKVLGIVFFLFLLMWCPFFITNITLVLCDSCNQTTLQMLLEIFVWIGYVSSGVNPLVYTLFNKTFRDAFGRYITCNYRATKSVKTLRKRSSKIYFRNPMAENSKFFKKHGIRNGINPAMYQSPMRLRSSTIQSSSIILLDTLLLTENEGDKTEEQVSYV
The target in experiment [4] is T2, Muscarinic acetylcholine receptor M1 (Homo sapiens, UniProt P11229).
T2 sequence (P11229 whole entry): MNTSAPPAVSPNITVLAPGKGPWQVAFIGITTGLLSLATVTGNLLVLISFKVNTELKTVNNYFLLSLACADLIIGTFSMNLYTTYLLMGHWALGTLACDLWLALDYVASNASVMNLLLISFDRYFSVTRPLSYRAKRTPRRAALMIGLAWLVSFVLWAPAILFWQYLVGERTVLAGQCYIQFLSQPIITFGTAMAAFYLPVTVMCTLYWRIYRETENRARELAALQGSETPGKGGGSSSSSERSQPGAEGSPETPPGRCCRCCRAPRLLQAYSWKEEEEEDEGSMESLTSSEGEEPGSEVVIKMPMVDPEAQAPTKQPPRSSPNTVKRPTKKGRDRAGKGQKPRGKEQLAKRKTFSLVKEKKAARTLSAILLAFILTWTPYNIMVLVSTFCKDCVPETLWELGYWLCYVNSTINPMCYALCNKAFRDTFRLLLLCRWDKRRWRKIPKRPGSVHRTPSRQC
The format is functional.

Another experiment concerns the target Cannabinoid receptor 1 (Homo sapiens, UniProt P21554). Type of experiment: functional, cell-based.
The next experiment concerns the target Histamine H1 receptor (Homo sapiens, UniProt P35367).
For a further experiment, the target named is T3, Glucocorticoid receptor (Homo sapiens, UniProt P04150).
T3 sequence (P04150 whole entry): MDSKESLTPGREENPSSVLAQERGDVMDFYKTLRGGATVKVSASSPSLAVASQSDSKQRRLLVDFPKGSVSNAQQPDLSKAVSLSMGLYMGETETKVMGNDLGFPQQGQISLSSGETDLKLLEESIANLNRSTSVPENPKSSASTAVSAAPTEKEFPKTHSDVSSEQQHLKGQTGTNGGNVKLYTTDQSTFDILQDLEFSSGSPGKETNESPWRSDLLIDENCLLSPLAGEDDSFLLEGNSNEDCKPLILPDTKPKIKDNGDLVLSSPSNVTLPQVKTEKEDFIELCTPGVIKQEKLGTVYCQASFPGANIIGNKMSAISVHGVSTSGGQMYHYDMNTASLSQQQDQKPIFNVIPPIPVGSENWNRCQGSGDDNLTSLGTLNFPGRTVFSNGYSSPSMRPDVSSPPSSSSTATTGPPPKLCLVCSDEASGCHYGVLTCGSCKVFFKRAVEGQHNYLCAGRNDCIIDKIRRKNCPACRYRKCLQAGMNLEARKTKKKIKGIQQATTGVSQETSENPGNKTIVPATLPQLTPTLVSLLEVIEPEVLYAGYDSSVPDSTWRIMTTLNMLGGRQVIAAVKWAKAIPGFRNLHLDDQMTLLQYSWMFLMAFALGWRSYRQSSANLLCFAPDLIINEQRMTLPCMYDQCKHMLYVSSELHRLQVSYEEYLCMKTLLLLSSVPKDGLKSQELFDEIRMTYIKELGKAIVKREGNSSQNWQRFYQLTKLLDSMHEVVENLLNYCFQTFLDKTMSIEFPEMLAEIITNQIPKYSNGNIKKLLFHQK

Experiment [5] has as its target T4, Alpha-1A adrenergic receptor (Homo sapiens, UniProt P35348).
T4 sequence (P35348 whole entry): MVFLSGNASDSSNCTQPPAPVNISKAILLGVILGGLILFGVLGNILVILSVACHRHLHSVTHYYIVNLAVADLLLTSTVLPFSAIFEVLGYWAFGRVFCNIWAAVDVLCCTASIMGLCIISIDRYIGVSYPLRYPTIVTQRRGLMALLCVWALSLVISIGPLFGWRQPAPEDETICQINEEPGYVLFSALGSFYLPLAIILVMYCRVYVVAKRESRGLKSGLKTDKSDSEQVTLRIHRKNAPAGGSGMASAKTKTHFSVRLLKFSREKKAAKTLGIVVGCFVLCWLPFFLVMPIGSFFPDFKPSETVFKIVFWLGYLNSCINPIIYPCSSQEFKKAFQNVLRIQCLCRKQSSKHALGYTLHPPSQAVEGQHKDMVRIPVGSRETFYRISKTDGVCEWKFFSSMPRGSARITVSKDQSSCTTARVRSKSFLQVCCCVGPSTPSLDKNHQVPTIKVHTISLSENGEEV
The format is functional, cell-based.

The target in another experiment is Histamine H3 receptor (Homo sapiens, UniProt Q9Y5N1).
Chain of Histamine H3 receptor (Q9Y5N1 whole entry): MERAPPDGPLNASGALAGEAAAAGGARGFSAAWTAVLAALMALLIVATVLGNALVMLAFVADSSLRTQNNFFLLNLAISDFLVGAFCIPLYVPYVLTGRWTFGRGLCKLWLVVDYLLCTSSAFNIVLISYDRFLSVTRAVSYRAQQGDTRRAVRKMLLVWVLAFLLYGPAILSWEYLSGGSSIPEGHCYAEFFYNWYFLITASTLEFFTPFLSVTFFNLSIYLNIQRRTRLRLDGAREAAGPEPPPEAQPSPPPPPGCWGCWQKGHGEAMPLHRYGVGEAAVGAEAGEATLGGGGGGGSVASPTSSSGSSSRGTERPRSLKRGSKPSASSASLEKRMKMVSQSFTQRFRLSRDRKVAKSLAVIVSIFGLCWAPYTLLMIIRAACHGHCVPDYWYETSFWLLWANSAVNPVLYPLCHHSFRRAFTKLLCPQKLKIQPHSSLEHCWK
Experiment [6] concerns the target cGMP-inhibited 3',5'-cyclic phosphodiesterase 3A (Homo sapiens, UniProt Q14432). The format is functional.
Further: assay procedure not described here.

Chain of Histamine H1 receptor (P35367 whole entry): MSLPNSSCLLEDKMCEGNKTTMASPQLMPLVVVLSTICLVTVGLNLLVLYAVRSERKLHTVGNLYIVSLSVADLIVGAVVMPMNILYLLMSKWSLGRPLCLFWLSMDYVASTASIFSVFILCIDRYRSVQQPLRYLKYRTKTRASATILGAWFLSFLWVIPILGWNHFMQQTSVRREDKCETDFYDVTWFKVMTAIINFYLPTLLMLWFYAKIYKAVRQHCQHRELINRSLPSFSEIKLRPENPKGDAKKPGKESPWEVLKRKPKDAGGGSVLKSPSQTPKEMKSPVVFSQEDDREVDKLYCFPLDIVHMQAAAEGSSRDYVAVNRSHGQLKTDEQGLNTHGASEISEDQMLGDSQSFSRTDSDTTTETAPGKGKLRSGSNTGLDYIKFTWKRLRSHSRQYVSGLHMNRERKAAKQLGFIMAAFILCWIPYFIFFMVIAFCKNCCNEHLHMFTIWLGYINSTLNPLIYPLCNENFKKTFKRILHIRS
Chain of Gamma-aminobutyric acid receptor subunit alpha-1 (P62813 whole entry): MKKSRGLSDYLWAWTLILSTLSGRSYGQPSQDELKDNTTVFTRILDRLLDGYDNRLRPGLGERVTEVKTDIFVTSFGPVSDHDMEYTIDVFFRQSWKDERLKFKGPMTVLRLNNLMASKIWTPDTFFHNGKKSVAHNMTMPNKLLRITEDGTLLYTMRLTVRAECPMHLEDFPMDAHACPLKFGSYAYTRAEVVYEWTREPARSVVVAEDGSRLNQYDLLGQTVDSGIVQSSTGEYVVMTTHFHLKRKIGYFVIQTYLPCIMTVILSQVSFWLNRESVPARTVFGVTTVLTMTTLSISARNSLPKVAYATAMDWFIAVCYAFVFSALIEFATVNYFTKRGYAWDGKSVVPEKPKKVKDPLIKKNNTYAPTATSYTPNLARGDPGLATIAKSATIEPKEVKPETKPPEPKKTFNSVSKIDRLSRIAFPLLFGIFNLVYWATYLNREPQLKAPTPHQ
Chain of Cannabinoid receptor 1 (P21554 whole entry): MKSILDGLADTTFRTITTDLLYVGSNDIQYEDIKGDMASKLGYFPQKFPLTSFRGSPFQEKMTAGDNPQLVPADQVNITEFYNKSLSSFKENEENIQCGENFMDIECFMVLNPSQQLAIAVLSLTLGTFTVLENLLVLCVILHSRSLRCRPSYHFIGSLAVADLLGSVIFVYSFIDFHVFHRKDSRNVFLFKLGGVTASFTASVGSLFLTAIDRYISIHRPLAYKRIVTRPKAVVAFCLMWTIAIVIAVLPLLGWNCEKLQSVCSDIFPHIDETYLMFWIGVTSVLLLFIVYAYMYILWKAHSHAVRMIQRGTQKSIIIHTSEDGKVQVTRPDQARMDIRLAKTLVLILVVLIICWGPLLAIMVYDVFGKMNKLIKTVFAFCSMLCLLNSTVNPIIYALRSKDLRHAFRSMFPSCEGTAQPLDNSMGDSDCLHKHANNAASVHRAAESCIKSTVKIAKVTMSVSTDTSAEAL
Chain of cGMP-inhibited 3',5'-cyclic phosphodiesterase 3A (Q14432 whole entry): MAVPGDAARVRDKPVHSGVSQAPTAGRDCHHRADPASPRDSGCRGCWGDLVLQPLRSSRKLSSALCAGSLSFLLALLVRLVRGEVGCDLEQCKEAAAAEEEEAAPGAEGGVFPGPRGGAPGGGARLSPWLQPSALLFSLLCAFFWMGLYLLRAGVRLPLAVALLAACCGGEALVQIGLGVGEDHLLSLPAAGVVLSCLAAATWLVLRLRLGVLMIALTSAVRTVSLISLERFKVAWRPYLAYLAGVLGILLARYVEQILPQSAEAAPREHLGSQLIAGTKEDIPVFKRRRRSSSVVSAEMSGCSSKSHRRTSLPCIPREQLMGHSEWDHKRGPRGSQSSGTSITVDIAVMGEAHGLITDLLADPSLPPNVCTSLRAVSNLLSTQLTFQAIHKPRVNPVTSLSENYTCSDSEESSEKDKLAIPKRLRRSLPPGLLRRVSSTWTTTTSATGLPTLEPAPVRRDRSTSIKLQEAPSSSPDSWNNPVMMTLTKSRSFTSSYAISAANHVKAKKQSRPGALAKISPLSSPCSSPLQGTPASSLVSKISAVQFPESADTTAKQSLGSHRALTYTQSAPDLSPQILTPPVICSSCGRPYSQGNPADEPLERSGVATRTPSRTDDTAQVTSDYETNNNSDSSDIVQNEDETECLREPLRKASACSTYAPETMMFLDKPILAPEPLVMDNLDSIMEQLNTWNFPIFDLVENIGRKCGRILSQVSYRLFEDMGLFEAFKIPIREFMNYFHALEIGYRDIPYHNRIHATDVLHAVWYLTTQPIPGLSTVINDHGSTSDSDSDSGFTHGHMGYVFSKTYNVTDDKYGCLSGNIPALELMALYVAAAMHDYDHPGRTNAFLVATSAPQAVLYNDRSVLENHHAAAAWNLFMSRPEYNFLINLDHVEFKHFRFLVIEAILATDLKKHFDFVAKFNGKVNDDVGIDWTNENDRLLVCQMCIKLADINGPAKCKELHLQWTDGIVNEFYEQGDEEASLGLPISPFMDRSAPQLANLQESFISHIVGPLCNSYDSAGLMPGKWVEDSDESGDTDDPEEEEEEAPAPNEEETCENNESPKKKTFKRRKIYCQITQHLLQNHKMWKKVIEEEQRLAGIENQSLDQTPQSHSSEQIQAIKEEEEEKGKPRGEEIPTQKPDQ

`Cc1cc2cc3c(C)cc(=O)oc3c(C)c2o1` [TRIOXSALEN]: the AC50 in experiment [1], in [2] and in [3] was more than 10 µM each time.
For `CC12CC3CC(C)(C1)CC(N)(C3)C2` [MEMANTINE], the AC50 – broadly, the concentration at which the activity in the assay is half-maximal – was more than 10 µM in experiment [4]; more than 10 µM in experiment [1]; more than 30 µM at Cannabinoid receptor 1; more than 10 µM in [2]; more than 10 µM on Histamine H1 receptor; more than 10 µM in experiment [3]. Also, the AC50 is more than 30 µM on Glucocorticoid receptor, more than 30 µM in experiment [5] and more than 10 µM at Histamine H3 receptor.
With `CN1CCC(=C2c3ccccc3CCc3cccnc32)CC1` [AZATADINE], the AC50 in experiment [4] was 0.11 µM; in [1], 0.08 µM; on Cannabinoid receptor 1, more than 30 µM; in experiment [2] it was more than 10 µM; on Histamine H1 receptor, 0.0066 µM; in experiment [3], 1.6 µM. For the same compound, the results for the AC50 (in [5]; at Histamine H3 receptor) were more than 30 µM and more than 10 µM, respectively.
For the compound `CCOC(=O)C1=C(C)NC(C)=C(C(=O)OC)C1c1cccc([N+](=O)[O-])c1` (configuration not stated) [NITRENDIPINE], the AC50 in [1] was more than 10 µM; at Cannabinoid receptor 1, more than 30 µM; in experiment [2], more than 10 µM; in experiment [3], more than 10 µM; in experiment [5], more than 30 µM; at Histamine H3 receptor, more than 10 µM.
Take `[H]/N=C(/N)N/C(=N/[H])NCCc1ccccc1` [PHENFORMIN]: the AC50 in experiment [4] was more than 30 µM; in experiment [1] it was more than 10 µM; in experiment [2] it was more than 10 µM; on Histamine H1 receptor, more than 30 µM; in experiment [3], more than 10 µM; on Glucocorticoid receptor, more than 30 µM. On Histamine H3 receptor, this compound showed an AC50 of more than 10 µM.
As to `CCCCC(=O)O[C@]1(C(=O)CO)[C@@H](C)C[C@H]2[C@@H]3CCC4=CC(=O)C=C[C@]4(C)[C@@]3(F)[C@@H](O)C[C@@]21C` [BETAMETHASONE VALERATE], the AC50 was more than 10 µM in experiment [4]; more than 10 µM in experiment [1]; more than 30 µM at Cannabinoid receptor 1; more than 10 µM in [2]; more than 10 µM on Histamine H1 receptor; more than 10 µM in experiment [3]. For the same compound, the AC50 was 0.004 µM at Glucocorticoid receptor, more than 30 µM in experiment [5] and more than 10 µM at Histamine H3 receptor.
As to `O=C(O)c1cn(C2CC2)c2cc(N3CCNCC3)c(F)cc2c1=O` [CIPROFLOXACIN], the AC50 (on Glucocorticoid receptor; in experiment [6]) was more than 30 µM each time.
In the case of `CCCN[C@H]1CCc2nc(N)sc2C1` [PRAMIPEXOLE], the AC50 is more than 10 µM in experiment [4]; more than 10 µM in [1]; more than 30 µM at Cannabinoid receptor 1; more than 10 µM in experiment [2]; more than 10 µM on Histamine H1 receptor; more than 10 µM in [3]. The AC50 is 13 µM in [5] and more than 10 µM at Histamine H3 receptor.
With `Oc1ccc2c(c1)CC[C@H](c1ccccc1)[C@@H]2c1ccc(OCCN2CCCC2)cc1` [LASOFOXIFENE], the AC50 in experiment [4] is 11 µM; at Cannabinoid receptor 1, more than 30 µM; in [2] it was more than 30 µM; at Histamine H1 receptor, 20 µM; in experiment [3] it was 9.49 µM; at Glucocorticoid receptor, 9.3 µM. The values for the AC50 (in experiment [5]; on Histamine H3 receptor) were 12 µM and 0.99 µM, respectively.
With `CCC[C@H](NC(=O)[C@@H]1[C@H]2CCC[C@H]2CN1C(=O)[C@@H](NC(=O)[C@@H](NC(=O)c1cnccn1)C1CCCCC1)C(C)(C)C)C(=O)C(=O)NC1CC1`, the AC50 in experiment [4] is more than 10 µM; in [2] it was more than 10 µM; at Histamine H1 receptor, more than 10 µM; at Glucocorticoid receptor, more than 30 µM; at Histamine H3 receptor, more than 10 µM.
Regarding `CC(N)C(O)c1ccccc1` (configuration not stated) [PHENYLPROPANOLAMINE], the AC50 is more than 10 µM in experiment [4]; more than 10 µM in experiment [1]; more than 30 µM at Cannabinoid receptor 1; more than 10 µM in experiment [2]; more than 10 µM on Histamine H1 receptor; more than 10 µM in [3]. The AC50 at Glucocorticoid receptor was more than 30 µM; in [5], more than 30 µM; on Histamine H3 receptor, more than 10 µM.
Take `Cc1noc(NS(=O)(=O)c2ccc(N)cc2)c1C` [SULFISOXAZOLE]: the AC50 was more than 10 µM in experiment [1]; more than 30 µM at Cannabinoid receptor 1; more than 10 µM in experiment [2]; more than 10 µM in experiment [3]; 22 µM in [5]; more than 10 µM on Histamine H3 receptor.
For `CC(C)NCC(O)c1ccc(O)c(O)c1` (configuration not stated) [ISOPROTERENOL], the half-maximal activity concentration (AC50) in [1] is more than 10 µM; on Cannabinoid receptor 1, more than 30 µM; in experiment [2] it was more than 10 µM; in [3], more than 10 µM; at Glucocorticoid receptor it was more than 30 µM; on Histamine H3 receptor it was more than 10 µM.
Consider `CCCCC1C(=O)N(c2ccccc2)N(c2ccccc2)C1=O` [PHENYLBUTAZONE], for which the AC50 (in experiment [1]; in experiment [2]; in [3]; on Glucocorticoid receptor) was more than 10 µM in each case.
As to `OC1(c2ccc(Cl)cc2)c2ccccc2C2=NCCN21` (configuration not stated) [MAZINDOL], the AC50 in experiment [4] is more than 30 µM; in experiment [1] it was more than 30 µM; at Cannabinoid receptor 1, more than 30 µM; in experiment [2], more than 30 µM; at Histamine H1 receptor, 7.5 µM; in [3], more than 30 µM. Further, the AC50 (at Glucocorticoid receptor; in experiment [5]; at Histamine H3 receptor) was more than 30 µM throughout.
Consider `CNC1=Nc2ccc(Cl)cc2C(c2ccccc2)=[N+]([O-])C1` [CHLORDIAZEPOXIDE], for which the AC50 is more than 10 µM in [1]; more than 10 µM in [2]; more than 10 µM in experiment [3]; more than 30 µM on Glucocorticoid receptor; more than 30 µM in [5]; more than 10 µM at Histamine H3 receptor.
For the compound `CC(CCc1ccc(O)cc1)NCCc1ccc(O)c(O)c1` (configuration not stated) [DOBUTAMINE], the AC50 (in experiment [1]; on Cannabinoid receptor 1; in experiment [2]; in experiment [3]; at Glucocorticoid receptor; on Histamine H3 receptor) was more than 30 µM each time.
On to `CC(C(=O)O)c1ccc(CC2CCCC2=O)cc1` (configuration not stated) [LOXOPROFEN], for which the AC50 (in [1]; on Cannabinoid receptor 1; in [2]; in experiment [3]; in experiment [5]; at Histamine H3 receptor) was more than 30 µM in each case.
